Data published in patent US11008572B2, “Methods and compositions for modulating splicing” (SKYHAWK THERAPEUTICS, INC., priority 2017, dated 2021).
Like-named read-outs stand apart in the source and are kept apart here.

Key:
[1] = test system: A-673 cells; test: Cell viability, crystal violet staining; format: cell-based
Method in brief: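 Readout is absorbance at 570 nm of crystal violet, taken up in 0.1 M sodium citrate in 50% ethanol after staining with 0.5% dye in 25% methanol. Plates held 5×10^3 cells per well, and compounds were added one day after seeding for 72 hours. Data are relative to vehicle, mean±SE.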

[2] = test system: FOXM1^A2 mRNA and FOXM1^BC mRNA; test: Splicing assay (FOXM1), qPCR of isoform mRNAs; format: cell-based
Experimental: Various cells lines were treated with the SMSMs described herein. RNA was then isolated, cDNA synthesized, qPCR performed and the levels of various mRNA targets of the SMSMs were determined. In some instances, RNA was isolated, cDNA synthesized, qPCR performed and the levels of mRNA isoforms in the various cell samples were determined.
On the day of the experiment, a 96-well plate was seeded with the cell lines of interest. The cells were diluted with full growth media to a concentration of 2.0×10^5 cells/mL and 100 μL of cells were added to each well (20,000 cells per well). The cells were treated with a compound immediately after plating.
The compounds were then added to the cell plate using the HP compound dispenser. In the initial experiment, a top concentration of 10 μM and an 8 point 4-fold dilution scheme was used. The stock compounds were made at a concentration of 5 mM, and the DMSO concentration was set to 0.2%. DMSO was used to normalize all the compound-containing wells and the untreated cells.
The treated cells were incubated at 37° C. in a 5% CO2 incubator for the desired amount of time. Plates were placed in a plastic bag with a wet paper towel to prevent evaporation.
RNA was isolated using the Cells to CT kit (ThermoFisher, AM1728). The cells were washed once with 100 μL cold PBS. 50 μL of lysis buffer was added to each well/tube (49.5 μL lysis buffer+0.5 μL DNase I per well/tube). The lysis reaction was mixed and incubated at room temperature for 5 minutes. 5 μL of stop solution was added directly into each cell lysis reaction and mixed by pipetting up and down 5 times. The plates/tubes were incubated at room temperature for 2 minutes then placed on ice if the cDNA synthesis was to be performed immediately. Otherwise, the plates/tubes were stored at −80° C. cDNA synthesis reactions were then performed. Reverse Transcription (RT) Master mix was prepared according to the table below.
40 μL RT master mix was added to PCR tubes or plate wells. 10 μL of RNA was added to each tube/well. The RT thermal cycler program was then run and tubes or plate wells were incubated at 37° C. for 1 hour, then at 95° C. for 5 minutes to deactivate the enzyme.
The qPCR was performed using a QuantStudio 6 instrument (ThermoFisher) and the following cycling conditions and according to the tables below. All samples and standards were analyzed in triplicate. Cycle 1: 2 minutes at 50° C. Cycle 2: 10 minutes at 95° C. Cycle 3 (repeat 40 times): 15 seconds at 95° C., 1 minute at 60° C.
The determined isoform 2and isoform 1quantities were then be used to determine the isoform 2: […] at the various compound concentrations. The PPIA quantities were used in the normalization to account of cell proliferation effects of the compounds.
The dilution necessary to make the top standard is calculated. A top concentration 200,000,000 copies/μL of the stock plasmid was prepared in TE buffer. A series of 10-fold dilutions, also in TE, were then made. A total of 5 μL of each standard was used in a qPCR well to generate samples containing 109 copies, […], 10^7copies, 10^6 copies, 10^5 copies, 10^4 copies, 10^3 copies, 10^2 copies, 10^1copies, and 0 copies.
An assay to measure the FOXM1^A2 mRNA and FOXM1^BC mRNA, or MADD^WT (isoform 4) mRNA and MADD^Ex16 (isoform 3) mRNA, or MAPTau^4R mRNA and MAPTau^3R mRNA simultaneously in cell wells was performed. The RNA values were measured relative to DMSO control and also included a housekeeping gene, PPIA to ensure data was consistent. The mRNA values were measured after 24 hours of incubation with the SMSM compounds.

[3] = Homo sapiens, A673, cell viability, read-out: A-673 IC50 (nM) Cell viability
[4] = Homo sapiens, A673, cell viability, read-out: A-673 IC50 (nM), Cell viability
[5] = Homo sapiens, A673, cell viability, read-out: A-673 IC50 (nM), cell viability

Work on “2-(6-(((1R,3s,5S)-8-azabicyclo[3.2.1]octan-3-yl)oxy)pyridazin-3-yl)-5-(1H-1,2,3-triazol-4-yl)phenol [compound 253]” yielded an IC50 ([1]; cell viability, read-out: A-673 IC50 (nM), Cell viability) of 501 to 1000 nM, an EC50 ([2]; FoxM1 A mRNA increase (exon excluded), 0.1-1000 nM, 24 hours, read-out: Splice EC50 (nM), FoxM1 A mRNA increase (exon excluded)) of 251 to 500 nM and an IC50 ([2]; FoxM1 BC mRNA decrease (exon included), 0.1-1000 nM, 24 hours, read-out: Splice IC50 (nM), FoxM1 BC mRNA decrease (exon included)) of 251 to 500 nM.
With CC1(C)CC(N(c2ccc(-c3ccc(-c4cn[nH]c4)cc3O)nn2)C2CC2)CC(C)(C)N1 [compound 129, 2-(6-(cyclopropyl(2,2,6,6-tetramethylpiperidin-4-yl)amino)pyridazin-3-yl)-5-(1H-pyrazol-4-yl)phenol] the IC50 [1, 3] was 251 to 500 nM, the IC50 ([2]; 24 h, LP-LoVo cells, 24 hours, table does not say EC50 or IC50, read-out: FOXM1) was 1 to 10 nM and the IC50 ([2]; 24 h, MDA-MB-231-luc cells, 24 hours, table does not say EC50 or IC50, read-out: FOXM1) was < 1 nM. For the same compound, the IC50 ([2]; Homo sapiens, A673, 24 h, A-673 cells, 24 hours, table does not say EC50 or IC50, read-out: FOXM1) was < 1 nM, the IC50 ([2]; Homo sapiens, A-375, 24 h, A-375 cells, 24 hours, table does not say EC50 or IC50, read-out: FOXM1) was < 1 nM and the IC50 ([2]; Homo sapiens, MDA-MB-157, 24 h, MDA-MB-157 cells, 24 hours, table does not say EC50 or IC50, read-out: FOXM1) was < 1 nM. The IC50 ([2]; Homo sapiens, SK-OV-3, 24 h, SKOV3 cells, 24 hours, table does not say EC50 or IC50, read-out: FOXM1) was 1 to 10 nM and the IC50 ([2]; Homo sapiens, Z-138, 24 h, Z-138 cells, 24 hours, table does not say EC50 or IC50, read-out: FOXM1) was < 1 nM.
For CC1(C)CC(N(c2ccc(-c3ccc(-c4cn[nH]c4)cc3O)nn2)C2CCC2)CC(C)(C)N1 [compound 130, 2-(6-(cyclobutyl(2,2,6,6-tetramethylpiperidin-4-yl)amino)pyridazin-3-yl)-5-(1H-pyrazol-4-yl)phenol], the IC50 [1, 3] was > 1000 nM, the IC50 ([2]; FoxM1 BC mRNA decrease (exon included), read-out: Splice IC50 (nM) FoxM1 BC mRNA decrease (exon included)) was > 1000 nM and the EC50 ([2]; read-out: Splice EC50 (nM) FoxM1 A mRNA increase (exon excluded)) was > 1000 nM.
For CN(c1ccc(-c2ccc(-c3ccn(CF)c(=O)c3)cc2O)nn1)[C@@H]1C[C@H]2CCC[C@@H](C1)N2 [compound 291, 4-(4-(6-(((1R,3s,5S)-9-azabicyclo[3.3.1]nonan-3-yl)(methyl)amino)pyridazin-3-yl)-3-hydroxyphenyl)-1-(fluoromethyl)pyridin-2(1H)-one], the IC50 [1, 4] was < 10 nM.
In the case of COc1cc(-c2ccc(-c3ccc(N(C)[C@@H]4C[C@H]5CCC[C@@H](C4)N5)nn3)c(O)c2)ccc1C [compound 292, 4-(6-(((1R,3s,5S)-9-azabicyclo[3.3.1]nonan-3-yl)(methyl)amino)pyridazin-3-yl)-3′-methoxy-4′-methyl-[1,1′-biphenyl]-3-ol], the IC50 [1, 4] is reported as > 1000 nM.
CN(c1ccc(-c2ccc(-c3cc[nH]c(=O)c3)cc2O)nn1)[C@@H]1C[C@H]2CCC[C@@H](C1)N2 [compound 293, 4-(4-(6-(((1R,3s,5S)-9-azabicyclo[3.3.1]nonan-3-yl)(methyl)amino)pyridazin-3-yl)-3-hydroxyphenyl)pyridin-2(1H)-one] gave an IC50 [1, 4] of 10 to 100 nM.
Compound CNC(=O)c1cc2cc(O)c(-c3ccc(N(C)[C@@H]4C[C@H]5CCC[C@@H](C4)N5)nn3)cc2o1 [compound 294, 6-(6-(((1R,3s,5S)-9-azabicyclo[3.3.1]nonan-3-yl)(methyl)amino)pyridazin-3-yl)-5-hydroxy-N-methylbenzofuran-2-carboxamide] has an IC50 [1, 4] of 501 to 1000 nM.
CN(C)C(=O)c1cc2cc(O)c(-c3ccc(N(C)[C@@H]4C[C@H]5CCC[C@@H](C4)N5)nn3)cc2o1 [compound 295, 6-(6-(((1R,3s,5S)-9-azabicyclo[3.3.1]nonan-3-yl)(methyl)amino)pyridazin-3-yl)-5-hydroxy-N,N-dimethylbenzofuran-2-carboxamide] showed an IC50 [1, 4] of 251 to 500 nM.
CNC(=O)c1cc2cc(-c3ccc(N(C)[C@@H]4C[C@H]5CCC[C@@H](C4)N5)nn3)c(O)cc2o1 [compound 297, 5-(6-(((1R,3s,5S)-9-azabicyclo[3.3.1]nonan-3-yl)(methyl)amino)pyridazin-3-yl)-6-hydroxy-N-methylbenzofuran-2-carboxamide] was tested, and the IC50 [1, 4] was 10 to 100 nM.
For CN(C)C(=O)c1cc2cc(-c3ccc(N(C)[C@@H]4C[C@H]5CCC[C@@H](C4)N5)nn3)c(O)cc2o1 [compound 298, 5-(6-(((1R,3s,5S)-9-azabicyclo[3.3.1]nonan-3-yl)(methyl)amino)pyridazin-3-yl)-6-hydroxy-N,N-dimethylbenzofuran-2-carboxamide], the IC50 [1, 4] was 10 to 100 nM.
CN(c1ccc(-c2cc3cc(C(=O)NC4CC4)oc3cc2O)nn1)[C@@H]1C[C@H]2CCC[C@@H](C1)N2 [compound 299, 5-(6-(((1R,3s,5S)-9-azabicyclo[3.3.1]nonan-3-yl)(methyl)amino)pyridazin-3-yl)-N-cyclopropyl-6-hydroxybenzofuran-2-carboxamide] was tested, and the IC50 [1, 4] was 10 to 100 nM.
CN(c1ccc(-c2ccc(-c3cc(=O)n(C)cn3)cc2O)nn1)[C@@H]1C[C@H]2CCC[C@@H](C1)N2 [compound 300, 6-(4-(6-(((2R,3s,5S)-9-azabicyclo[3.3.1]nonan-3-yl)(methyl)amino)pyridazin-3-yl)-3-hydroxyphenyl)-3-methylpyrimidin-4(3H)-one] gave an IC50 [1, 4] of 10 to 100 nM.
Work on CN(c1ccc(-c2ccc(-c3cnn(C(F)F)c3)cc2O)nn1)[C@@H]1C[C@H]2CCC[C@@H](C1)N2 [compound 301, 2-(6-(((1R,3s,5S)-9-azabicyclo[3.3.1]nonan-3-yl)(methyl)amino)pyridazin-3-yl)-5-(1-(difluoromethyl)-1H-pyrazol-4-yl)phenol] yielded an IC50 [1, 4] of 10 to 100 nM.
C[C@]12CC[C@](C)(C[C@@H](N(c3ccc(-c4ccc(-c5cn[nH]c5)cc4O)nn3)C3CC3)C1)N2 [compound 302, 2-(6-(cyclopropyl((1R,3s,5S)-1,5-dimethyl-8-azabicyclo[3.2.1]octan-3-yl)amino)pyridazin-3-yl)-5-(1H-pyrazol-4-yl)phenol] gave an IC50 [1, 4] of 10 to 100 nM.
[2H]C([2H])([2H])c1ncc(-c2ccc(-c3ccc(N(C)[C@H]4C[C@]5(C)CC[C@](C)(C4)N5)nn3)c(O)c2)o1 [compound 303, 2-(6-(((1R,3s,5S)-1,5-dimethyl-8-azabicyclo[3.2.1]octan-3-yl)(methyl)amino)pyridazin-3-yl)-5-(2-(methyl-d3)oxazol-5-yl)phenol] was tested, and the IC50 [1, 4] was 10 to 100 nM.
For CN(c1ccc(-c2ccc(-c3ccn(C)c(=O)n3)cc2O)nn1)[C@H]1C[C@]2(C)CCC[C@](C)(C1)N2 [compound 305, 4-(4-(6-(((1R,3s,5S)-1,5-dimethyl-9-azabicyclo[3.3.1]nonan-3-yl)(methyl)amino)pyridazin-3-yl)-3-hydroxyphenyl)-1-methylpyrimidin-2(1H)-one], the IC50 [1, 4] was 101 to 250 nM.
For CN(c1ccc(-c2ccc(-c3cc[nH]c(=O)c3)cc2O)nn1)[C@H]1C[C@]2(C)CCC[C@](C)(C1)N2 [compound 306, 4-(4-(6-(((1R,3s,5S)-1,5-dimethyl-9-azabicyclo[3.3.1]nonan-3-yl)(methyl)amino)pyridazin-3-yl)-3-hydroxyphenyl)pyridin-2(1H)-one], the IC50 [1, 5] was < 10 nM and the IC50 ([1]; Homo sapiens, A673, read-out: A-673 cell viability (IC50)) was < 3 nM.
Work on CN(c1ccc(-c2ccc(-c3ccnc(OC(F)F)c3)cc2O)nn1)[C@H]1C[C@]2(C)CCC[C@](C)(C1)N2 [compound 308, 5-(2-(difluoromethoxy)pyridin-4-yl)-2-(6-(((1R,3s,5S)-1,5-dimethyl-9-azabicyclo[3.3.1]nonan-3-yl)(methyl)amino)pyridazin-3-yl)phenol] yielded an IC50 [1, 5] of 501 to 1000 nM.
